Drawing on ChEMBL document CHEMBL1201862, “PubChem BioAssay data set” (2004), this text covers AC50, EC50 and IC50 for 13 compounds.

The term AC50 denotes the concentration giving half of the maximal activity seen. A word on the EC50: it is the midpoint of the concentration-response curve. The term IC50 denotes the midpoint of a concentration-inhibition curve.

A short description of assay [1]: MITF Orthogonal Assay: SK-MEL-5 CTG Assay Measured in Cell-Based System Using Plate Reader - 2084-02_Inhibitor_Dose_DryPowder_Activity_Set7. It is filed as functional.
A short description of assay [2]: MITF: Counter assay: A375 proliferation Measured in Cell-Based System Using Plate Reader - 2084-03_Inhibitor_Dose_DryPowder_Activity_Set8. It is filed as functional. The following applies: A-375.
Assay [3] in a line: TRPM1 promoter luciferase reporter signal decrease, dose response, MITF inhibitor project, cell-based, SK-MEL-5, dry powder, set 8 (AID 624430). It is filed as functional. (In general: A reporter such as luciferase makes a cellular process visible.)
Assay [4] in a line: NIH-3T3 fibroblast cytotoxicity, dose response, cytotoxicity control, cell-based, fluorescence, Alamar Blue, secondary assay (AID 2327).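 Further: NIH-3T3 mouse fibroblasts cultured with fluconazole at 8 µg/mL.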 It is filed as functional. A general note: Resazurin is reduced to fluorescent resorufin, in cell work by metabolically active cells.
The nature of assay [5]: C. albicans growth with fluconazole, confirmation, fluorescence, retest (AID 2467). In kind it is functional, cell-based.
Another assay deals with Kallikrein-7 (Homo sapiens, UniProt P49862). In words: Fluorescence Intensity-based biochemical primary high throughput dose response assay to identify activators of kallikrein-7 (K7) zymogen.
The nature of assay [6]: A549 cell cytotoxicity, dose response, cytotoxicity control, plate reader, cherry-pick, antagonist series (AID 743412). It is filed as functional, cell-based.
Assay [7] is described as follows: HepG2 cell cytotoxicity, dose response, cytotoxicity control, plate reader, cherry-pick, antagonist series (AID 743416). In kind it is functional, cell-based.
Assay [8] is described as follows: LGR2 antagonists, dose response, cell-based, HEK293, CRE-luciferase reporter, cherry pick, set 2 (AID 743343).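 Further: transfected cells were stimulated with diluted bursicon conditioned medium after compound addition.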 In kind it is functional.
A short description of assay [9]: MC4R antagonists, dose response, counter-screen for LGR2 antagonist project, cell-based, plate reader, cherry pick (AID 743444).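 Further: transfected HEK 293 cells stimulated with alpha-MSH peptide; potency of inhibitors of the alpha-MSH evoked signal.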 In kind it is functional. In general terms: Counterscreens check selectivity or assay interference.
A short description of assay [10]: HEK293 cell cytotoxicity, dose response, cytotoxicity control, plate reader, cherry-picked samples (AID 743446). In kind it is functional, cell-based.
Assay [11] is described as follows: inhibitors of PGC1a acetylation in cells, dose response, cell-based, cherry-picked samples (AID 720514).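 Further: potency may reflect raised or lowered acetylation signal.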 It is filed as functional.
The nature of assay [12]: P. falciparum Dd2 growth inhibitors, dose response, SYBR Green, cherry-picked samples (AID 1159567). In kind it is functional, cell-based.
Assay [13] can be described thus: HepG2 cell cytotoxicity, dose response, cytotoxicity control, cherry-picked samples (AID 1159577). In kind it is functional, cell-based.
Assay [14] can be described thus: inhibitors of Vif binding to APOBEC3G peptide, primary screen, biochemical, TR-FRET, GST-Vif 1-94, biotin-A3G peptide, dose response retest (AID 1117319).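 Further: TR-FRET signal of purified GST-Vif binding a biotinylated A3G peptide; inhibitors lower the FRET signal by blocking Vif and A3G binding.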 In kind it is functional.
Assay [15] can be described thus: Dose-response inhibition of insulin secretion in a rat insulinoma line at 5 mM glucose (AID 1117331). In kind it is functional, cell-based. The following applies: INS-1E.
A short description of assay [16]: ADAM10 inhibitors, peptide cleavage, dose response, biochemical, QFRET (AID 743254).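 Further: ADAM10 enzyme with the DM2 quenched FRET peptide as substrate; EDANS fluorescence gain as the protease cuts the substrate; inhibitor potency against ADAM10 proteolytic activity.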
The target of assay [17] is Disintegrin and metalloproteinase domain-containing protein 17 (Homo sapiens, UniProt P78536). In words: ADAM17 protease inhibitors, dose response, counter-screen for ADAM10 exosite inhibitor project, biochemical, quenched FRET substrate (AID 743253).
Assay [18] is described as follows: A549 cell cytotoxicity, dose response, cytotoxicity control, cherry-picks, 26 µM top dose (AID 1053119). In kind it is functional, cell-based.
A short description of assay [19]: P. falciparum late gametocyte killing, dose response, luminescence (AID 1117278).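 Further: gametocytes exposed to compound for 24 hours.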 In kind it is functional, cell-based.
Assay [20] can be described thus: Jurkat T cell cytotoxicity, dose response, cytotoxicity control for P. falciparum gametocyte viability project, luminescence (AID 1117277).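 Further: potency reflects loss of cellular ATP meaning fewer viable cells.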 It is filed as functional, cell-based.
A short description of assay [21]: Concentration-dependent survival of SW480 colon cancer line, luminescence detection with CellTiter-Glo, half-maximal inhibitory concentration (AID 1117338). In kind it is functional.
A short description of assay [22]: RKO cell viability reduction, dose response, CellTiter-Glo luminescence (AID 1117322). It is filed as functional.
The nature of assay [23]: cytotoxicity toward HCT116 cells – cell-based, CellTiter-Glo luminescence, IC50, dose response (AID 1117332). It is filed as functional. The following applies: HCT-116.
Assay [24] in a line: SNU-C1 cell viability reduction, dose response, CellTiter-Glo luminescence (AID 1117323). In kind it is functional, cell-based.
A short description of assay [25]: cytotoxicity toward Colo320 cells – cell-based, CellTiter-Glo luminescence, IC50, dose response (AID 1117334). The following applies: COLO 320. In kind it is functional.
A short description of assay [26]: cytotoxicity toward HT-29 cells – cell-based, CellTiter-Glo luminescence, IC50, dose response (AID 1117330). In kind it is functional.
The nature of assay [27]: CellTiter-Glo luminescent dose response of DLD-1 viability loss (AID 1117352). It is filed as functional.

Activity calls are given as the source filed them. Where only a bound is given, the exact number is not on record here.

Chain of Kallikrein-7 (P49862 whole entry): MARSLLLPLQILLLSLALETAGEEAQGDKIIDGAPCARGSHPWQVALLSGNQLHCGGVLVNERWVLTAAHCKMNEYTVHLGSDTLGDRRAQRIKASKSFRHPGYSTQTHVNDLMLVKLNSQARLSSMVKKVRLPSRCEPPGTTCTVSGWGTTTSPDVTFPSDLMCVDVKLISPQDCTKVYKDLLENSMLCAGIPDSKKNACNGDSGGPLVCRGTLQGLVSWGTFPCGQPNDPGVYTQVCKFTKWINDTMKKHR
Chain of Disintegrin and metalloproteinase domain-containing protein 17 (P78536 whole entry, the tested form may be a part): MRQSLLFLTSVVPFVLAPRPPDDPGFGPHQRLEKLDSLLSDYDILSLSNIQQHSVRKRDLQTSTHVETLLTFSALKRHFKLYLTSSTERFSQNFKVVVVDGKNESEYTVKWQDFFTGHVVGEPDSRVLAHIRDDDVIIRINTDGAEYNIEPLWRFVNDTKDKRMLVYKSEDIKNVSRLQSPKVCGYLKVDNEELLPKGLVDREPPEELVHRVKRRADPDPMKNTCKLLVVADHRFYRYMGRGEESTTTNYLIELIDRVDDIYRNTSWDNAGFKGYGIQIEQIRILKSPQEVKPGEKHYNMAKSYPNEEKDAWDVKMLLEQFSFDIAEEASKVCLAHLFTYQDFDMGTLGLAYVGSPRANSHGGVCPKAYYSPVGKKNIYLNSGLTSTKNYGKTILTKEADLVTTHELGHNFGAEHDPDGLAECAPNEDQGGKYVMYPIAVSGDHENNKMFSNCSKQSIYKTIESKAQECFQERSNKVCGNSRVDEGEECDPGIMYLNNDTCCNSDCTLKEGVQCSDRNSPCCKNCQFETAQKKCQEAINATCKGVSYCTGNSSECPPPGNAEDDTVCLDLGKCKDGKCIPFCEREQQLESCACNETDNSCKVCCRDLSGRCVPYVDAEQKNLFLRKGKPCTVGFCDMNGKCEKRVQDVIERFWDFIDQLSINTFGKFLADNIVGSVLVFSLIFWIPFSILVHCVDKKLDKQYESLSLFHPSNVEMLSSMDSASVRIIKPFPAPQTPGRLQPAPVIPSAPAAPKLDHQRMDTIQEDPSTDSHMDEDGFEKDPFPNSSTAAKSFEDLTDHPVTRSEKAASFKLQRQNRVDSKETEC

Consider `CN1CCN(C2=C(Nc3ccc(F)cc3)C(=O)c3ccccc3C2=O)CC1`, for which the half-maximal activity concentration (AC50) is 12.1 µM (active) in assay [1], > 70 µM (inactive) in [2] and 8.28 µM (active) in [3].

As for `C=CCO/C(O)=C1\C(C)=NC(SCC(=O)NC(=O)OCC)=C(C#N)C1c1cccnc1` (stereo not given), the EC50 in assay [4] is > 150 µM (inactive); in assay [5], 6.32 µM (active); at Kallikrein-7 it was 4.56 µM (active).

`CCCc1c(-c2ccccc2F)ncn1CCc1ccccc1OC`: the AC50 in assay [6] is 23.5 µM (active); in assay [7], 23.6 µM (active); in assay [8], 13.4 µM (active); in assay [9] it was 17.4 µM (active); in assay [10], 31.7 µM (active).

Consider `Fc1ccc(-c2ccc([C@@H]3[C@@H]4CN(Cc5ccccc5)C[C@H]3N4)cc2)cc1`, for which the AC50 was 14.3 µM (active) in assay [11], 4.07 µM (active) in [12] and 8.83 µM (active) in assay [13].

Consider `CC1=C(C(=O)NCc2ccco2)C2(CCC(C)CC2)OC1=O` (stereo not given), for which the IC50 in assay [14] is > 100 µM (active).

On to `CN(C)CC/C=C1\c2ccccc2Sc2ccc(Cl)cc21`, for which the IC50 in [15] is > 33.3 µM (inactive).

As for `COc1cc(NC(=O)c2ccccc2)c(C)cc1NC(=O)CSc1nnc(-c2ccccc2F)n1-c1ccc(C)cc1`, the IC50 in [16] and in assay [17] was > 69.5 µM (inactive) in each case.

`CN(C)C(=O)c1ccc(-c2ccc3c(c2)[C@H]2[C@H](CCN2C(=O)c2ccc(F)cc2)[C@@H](CO)N3C)cc1`: the AC50 in [18] is > 47 µM (inactive).

Take `COc1ccc(-c2cc(C(=O)NC3CC3)c3ccccc3n2)cc1`: the EC50 at Kallikrein-7 is 86.4 µM (inactive).

Take `CCOC(=O)C(C#N)C(c1cccnc1)c1c(C)n[nH]c1O` (stereo not given): the IC50 was > 109 µM (inactive) in [19] and > 83.3 µM (inactive) in [20].

For `Cc1csc(CNc2ncnc3ccc(-c4ccoc4)cc23)c1`, the AC50 in assay [6] is > 52 µM (inactive); in assay [7] it was 27.8 µM (active); in assay [8] it was 0.81 µM (active); in assay [9] it was 0.489 µM (active); in [10], 28.9 µM (active).

With `O=C(/C=C/c1cccs1)c1ccc(NC(=O)c2cccc(Br)c2)cc1`, in assay [11], the AC50 was 28.9 µM (active).

With `CC(C)(C)CC(C)(C)c1cc(Cc2cc(C(C)(C)CC(C)(C)C)cc(-n3nc4ccccc4n3)c2O)c(O)c(-n2nc3ccccc3n2)c1` [BISOCTRIZOLE], the IC50 in assay [21], in assay [22], in [23], in assay [24], in [25] and in assay [26] was > 20 µM (inactive) in each case. In addition, in [27], the IC50 was > 20 µM (inactive).
